The results in this text go back to ChEMBL document CHEMBL3045780, “EGFR tyrosine kinase targeted compounds: synthesis, docking study, and in vitro antitumor activity of some new quinazoline and benzo[d]isothiazole derivatives” (Med Chem Res, 2011).

Structures are written as SMILES. In brackets after ≈: the same amount, converted by molar mass.

For this experiment, the system named is MCF7. In words: Cytotoxicity against Homo sapiens (human) MCF7 cells after 48 hr by SRB assay. Type of experiment: functional, cell-based. The note with it: MCF7, 48 h. (In general: Sulforhodamine B stains cellular protein and so reports cell mass.)
As to `O=C(NS(=O)(=O)c1ccc(Cl)cc1)n1cnc2ccccc2c1=O`, the IC50 came out at 3.74 µg/mL (≈ 10.3 µM).

`O=S1(=O)N=C(Nc2ccc(NC3=NS(=O)(=O)c4ccccc43)cc2)c2ccccc21` registered an IC50 of 2.76 µg/mL (≈ 6.29 µM).

For `N=C(N)NS(=O)(=O)c1ccc(NNC2=NS(=O)(=O)c3ccccc32)cc1`, 4.35 µg/mL (≈ 11 µM) corresponded to half-maximal inhibition (IC50).

As for `N=C(N)NS(=O)(=O)c1ccc(NC2=NS(=O)(=O)c3ccccc32)cc1`, 4.3 µg/mL (≈ 11.3 µM) corresponded to half-maximal inhibition (IC50).

As for `O=C(NS(=O)(=O)c1ccc(Cl)cc1)N1C(=O)c2ccccc2S1(=O)=O`, the IC50 was 6.03 µg/mL (≈ 15 µM).

For the compound `Clc1ccc(-c2nnc(Nc3ncnc4ccccc34)s2)cc1`, the IC50 is 2.04 µg/mL (≈ 6 µM).

Consider `c1ccc2c(NCCNc3ncnc4ccccc34)ncnc2c1`, for which 2.04 µg/mL (≈ 6.45 µM) corresponded to half-maximal inhibition (IC50).

`O=S1(=O)N=C(NCCNC2=NS(=O)(=O)c3ccccc32)c2ccccc21` showed an IC50 of 3.69 µg/mL (≈ 9.45 µM).

Regarding `O=S1(=O)N=C(Nc2nnc(-c3ccc(Cl)cc3)s2)c2ccccc21`, the IC50 amounted to 2.92 µg/mL (≈ 7.75 µM).

Compound `c1ccc(-c2nnc(Nc3ncnc4ccccc34)s2)cc1` registered an IC50 of 3.61 µg/mL (≈ 11.8 µM).

Compound `NS(=O)(=O)c1ccc(NNc2ncnc3ccccc23)cc1` yielded an IC50 of 1.13 µg/mL (≈ 3.58 µM).

For `O=S1(=O)N=C(Nc2cccc(NC3=NS(=O)(=O)c4ccccc43)c2)c2ccccc21`, the half-maximal inhibitory concentration (IC50) is 3.14 µg/mL (≈ 7.16 µM).

Regarding `c1cc(Nc2ncnc3ccccc23)cc(Nc2ncnc3ccccc23)c1`, the IC50 amounted to 2.04 µg/mL (≈ 5.6 µM).

The compound `Cc1ccc(S(=O)(=O)NC(=O)n2cnc3ccccc3c2=O)cc1` gave an IC50 of 3.96 µg/mL (≈ 11.5 µM).

With `O=S1(=O)N=C(Nc2nnc(-c3ccccc3)s2)c2ccccc21`, the IC50 amounted to 2.92 µg/mL (≈ 8.53 µM).

On to `NS(=O)(=O)c1ccc(NNC2=NS(=O)(=O)c3ccccc32)cc1`, for which it took 3.73 µg/mL (≈ 10.6 µM) to reach half-maximal inhibition (IC50).

Compound `NS(=O)(=O)c1ccc(NC2=NS(=O)(=O)c3ccccc32)cc1` yielded an IC50 of 4.17 µg/mL (≈ 12.4 µM).

In turn, `N=C(N)NS(=O)(=O)c1ccc(NNc2ncnc3ccccc23)cc1` displayed an IC50 of 1.65 µg/mL (≈ 4.62 µM).

As for `c1ccc2c(Nc3ccc(Nc4ncnc5ccccc45)cc3)ncnc2c1`, inhibition was half-maximal at 0.06 µg/mL (≈ 0.165 µM) (IC50).

`Cc1ccc(S(=O)(=O)NC(=O)N2C(=O)c3ccccc3S2(=O)=O)cc1`: the IC50 was found to be 5.65 µg/mL (≈ 14.9 µM).

The compound `N=C(N)NS(=O)(=O)c1ccc(Nc2ncnc3ccccc23)cc1` displayed an IC50 of 1.85 µg/mL (≈ 5.4 µM).

Take `NS(=O)(=O)c1ccc(Nc2ncnc3ccccc23)cc1`: the IC50 came out at 2.4 µg/mL (≈ 7.99 µM).

The IC50 is the concentration at which inhibition is half-maximal. Read a low IC50 as greater potency.
